Laboratory results: US12552783B2, “Modulators of proteolysis and associated methods of use” (Arvinas Operations, Inc., priority 2018, dated 2026)

Target: KRas (Homo sapiens, UniProt P01116, G12C)
Test: KRas degradation in SW1573 cells by Western blot, normalized to GAPDH (data of Table 14)
Type: cell-based
Details: SW1573 cells
How it was run: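 SW1573 cells, homozygous for the KRas G12C mutation and maintained in DMEM with 10% FBS and 1% penicillin-streptomycin, were seeded in 12-well plates, allowed to attach overnight at 37° C. under 5% CO2, then serum-starved for 24 hours before compound exposure. KRas levels were measured by Western blot, normalized to GAPDH, and compared with DMSO controls to give percent degradation, DC50 and Dmax.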

Percent Degradation at Indicated Concentration (μM) (0.1 μM) | Percent Degradation at Indicated Concentration (μM) (0.3 μM) | Percent Degradation at Indicated Concentration (μM) (1 μM) | Dmax [%] | Percent Degradation at Indicated Concentration (μM) (0.03 μM) | Percent Degradation at Indicated Concentration (μM) (3 μM) | SMILES
C (Percent Degradation: C ≤ 35) | C (Percent Degradation: C ≤ 35) | C (Percent Degradation: C ≤ 35) |  |  |  | C=CC(=O)N1CCN(c2nc(O[C@H](C)CN3CCC(OCCOCCOCCOCCOc4cc(-c5scnc5C)ccc4CNC(=O)[C@@H]4C[C@@H](O)CN4C(=O)[C@H](c4cc(C)no4)C(C)C)CC3)nc3c2CCN(c2cc(O)cc4ccccc24)C3)CC1 [compound 443, (2S,4R)-N-(2-(2-(2-(2-(2-((1-((R)-2-((4-(4-acryloylpiperazin-1-yl)-7-(3-hydroxynaphthalen-1-yl)-5,6,7,8-tetrahydropyrido[3,4-d]dipyrimidin-2-yl)oxy)propyl)piperidin-4-yl)oxy)ethoxy)ethoxy)ethoxy)ethoxy)-4-(4-methylthiazol-5-yl)benzyl)-4-hydroxy-1-((S)-3-methyl-2-(3-methylisoxazol-5-yl)butanoyl)pyrrolidine-2-carboxamide]
C (Percent Degradation: C ≤ 35) | C (Percent Degradation: C ≤ 35) | C (Percent Degradation: C ≤ 35) |  |  |  | C=CC(=O)N1CCN(c2nc(O[C@H](C)CN3CCC(OCCOCCOCCOCCOCCOc4cc(-c5scnc5C)ccc4CNC(=O)[C@@H]4C[C@@H](O)CN4C(=O)[C@H](c4cc(C)no4)C(C)C)CC3)nc3c2CCN(c2cc(O)cc4ccccc24)C3)CC1 [compound 444]
C (Percent Degradation: C ≤ 35) | C (Percent Degradation: C ≤ 35) | C (Percent Degradation: C ≤ 35) |  |  |  | C=CC(=O)N1CCN(c2nc(OC3CCN(CCOCCN4CCN(CC(=O)N[C@H](C(=O)N5C[C@H](O)C[C@H]5C(=O)N[C@@H](C)c5ccc(-c6scnc6C)cc5)C(C)(C)C)CC4)CC3)nc3c(F)c(-c4cc(O)cc5ccccc45)c(Cl)cc23)CC1 [compound 475, (2S,4R)-1-((2S)-2-(2-(4-(2-(2-(4-((4-(4-acryloylpiperazin-1-yl)-6-chloro-8-fluoro-7-(3-hydroxynaphthalen-1-yl)quinazolin-2-yl)oxy)piperidin-1-yl)ethoxy)ethyl)piperazin-1-yl)acetamido)-3,3-dimethylbutanoyl)-4-hydroxy-N-((S)-1-(4-(4-methylthiazol-5-yl)phenyl)ethyl)pyrrolidine-2-carboxamide]
C (Percent Degradation: C ≤ 35) | C (Percent Degradation: C ≤ 35) | C (Percent Degradation: C ≤ 35) |  |  |  | C=CC(=O)N1CCN(c2nc(OC[C@@H]3C[C@@H](OCCOCCOCCOCCOCC(=O)N[C@H](C(=O)N4C[C@H](O)C[C@H]4C(=O)N[C@@H](C)c4ccc(-c5scnc5C)cc4)C(C)(C)C)CN3C)nc3c2CCN(c2cccc4ccccc24)C3)C[C@@H]1CC#N [compound 480]
C (Percent Degradation: C ≤ 35) | C (Percent Degradation: C ≤ 35) | B (35 < B < 70) | 35 to 70 |  |  | C=CC(=O)N1CCN(c2nc(OC[C@@H]3C[C@@H](OCCOCCOCCOCCOc4ccc5c(c4)C(=O)N(C4CCC(=O)NC4=O)C5=O)CN3C)nc3c2CCN(c2cccc4ccccc24)C3)C[C@@H]1CC#N (stereo partly drawn) [compound 481, 2-((2S)-1-acryloyl-4-(2-(((2S,4R)-4-(2-(2-(2-(2-((2-(2,6-dioxopiperidin-3-yl)-1,3-dioxoisoindolin-5-yl)oxy)ethoxy)ethoxy)ethoxy)ethoxy)-1-methylpyrrolidin-2-yl)methoxy)-7-(naphthalen-1-yl)-5,6,7,8-tetrahydropyrido[3,4-d]dipyrimidin-4-yl)piperazin-2-yl)acetonitrile]
C (Percent Degradation: C ≤ 35) | C (Percent Degradation: C ≤ 35) | C (Percent Degradation: C ≤ 35) |  | C (Percent Degradation: C ≤ 35) |  | C=CC(=O)N1CCN(c2nc(OC[C@@H]3C[C@@H](OCCOCCOc4ccc5c(c4)C(=O)N(C4CCC(=O)NC4=O)C5=O)CN3C)nc3c2CCN(c2cccc4ccccc24)C3)C[C@@H]1CC#N (stereo partly drawn) [compound 503, 2-((2S)-1-acryloyl-4-(2-(((2S,4R)-4-(2-(2-((2-(2,6-dioxopiperidin-3-yl)-1,3-dioxoisoindolin-5-yl)oxy)ethoxy)ethoxy)-1-methylpyrrolidin-2-yl)methoxy)-7-(naphthalen-1-yl)-5,6,7,8-tetrahydropyrido[3,4-d]pyrimidin-4-yl)piperazin-2-yl)acetonitrile]
B (35 < B < 70) | A (A > 70) | C (Percent Degradation: C ≤ 35) | ≥ 70 |  |  | C=CC(=O)N1CCN(c2nc(OC[C@@H]3C[C@@H](OCCOCCOCCOc4ccc5c(c4)C(=O)N(C4CCC(=O)NC4=O)C5=O)CN3C)nc3c2CCN(c2cccc4ccccc24)C3)C[C@@H]1CC#N (stereo partly drawn) [compound 504, 2-((2S)-1-acryloyl-4-(2-(((2S,4R)-4-(2-(2-(2-((2-(2,6-dioxopiperidin-3-yl)-1,3-dioxoisoindolin-5-yl)oxy)ethoxy)ethoxy)ethoxy)-1-methylpyrrolidin-2-yl)methoxy)-7-(naphthalen-1-yl)-5,6,7,8-tetrahydropyrido[3,4-d]pyrimidin-4-yl)piperazin-2-yl)acetonitrile]
C (Percent Degradation: C ≤ 35) | C (Percent Degradation: C ≤ 35) |  |  | C (Percent Degradation: C ≤ 35) |  | C=CC(=O)N1CCN(c2nc(OC[C@@H]3C[C@@H](OCCOCCOCCOCCOCCOc4ccc5c(c4)C(=O)N(C4CCC(=O)NC4=O)C5=O)CN3C)nc3c2CCN(c2cccc4ccccc24)C3)C[C@@H]1CC#N (stereo partly drawn) [compound 505, 2-((2S)-1-acryloyl-4-(2-(((2S,4R)-4-((14-((2-(2,6-dioxopiperidin-3-yl)-1,3-dioxoisoindolin-5-yl)oxy)-3,6,9,12-tetraoxatetradecyl)oxy)-1-methylpyrrolidin-2-yl)methoxy)-7-(naphthalen-1-yl)-5,6,7,8-tetrahydropyrido[3,4-d]pyrimidin-4-yl)piperazin-2-yl)acetonitrile]
 | C (Percent Degradation: C ≤ 35) | C (Percent Degradation: C ≤ 35) |  |  | C (Percent Degradation: C ≤ 35) | C[C@H](CN1CCC(OCCOCCOCCOCCOCCOc2ccc3c(c2)C(=O)N(C2CCC(=O)NC2=O)C3=O)CC1)Oc1nc(N2CCN(C(=O)C(O)O)CC2)c2cc(Cl)c(-c3cc(O)cc4ccccc34)c(F)c2n1 (stereo partly drawn) [compound 515, 5-((14-((1-((2R)-2-((6-chloro-4-(4-(2,2-dihydroxyacetyl)piperazin-1-yl)-8-fluoro-7-(3-hydroxynaphthalen-1-yl)quinazolin-2-yl)oxy)propyl)piperidin-4-yl)oxy)-3,6,9,12-tetraoxatetradecyl)oxy)-2-(2,6-dioxopiperidin-3-yl)isoindoline-1,3-dione]
C (Percent Degradation: C ≤ 35) | B (35 < B < 70) | B (35 < B < 70) | 35 to 70 |  |  | C=CC(=O)N1CCN(c2nc(OC[C@@H]3C[C@@H](OCCOCCNc4cccc5c4C(=O)N(C4CCC(=O)NC4=O)C5=O)CN3C)nc3c2CCN(c2cccc4ccccc24)C3)C[C@@H]1CC#N (stereo partly drawn) [compound 516, 2-((2S)-1-acryloyl-4-(2-(((2S,4R)-4-(2-(2-((2-(2,6-dioxopiperidin-3-yl)-1,3-dioxoisoindolin-4-yl)amino)ethoxy)ethoxy)-1-methylpyrrolidin-2-yl)methoxy)-7-(naphthalen-1-yl)-5,6,7,8-tetrahydropyrido[3,4-d]pyrimidin-4-yl)piperazin-2-yl)acetonitrile]
B (35 < B < 70) | A (A > 70) | C (Percent Degradation: C ≤ 35) | ≥ 70 |  |  | C=CC(=O)N1CCN(c2nc(OC[C@@H]3C[C@@H](OCCOCCOCCOCCNc4cccc5c4C(=O)N(C4CCC(=O)NC4=O)C5=O)CN3C)nc3c2CCN(c2cccc4ccccc24)C3)C[C@@H]1CC#N (stereo partly drawn) [compound 518, 2-((2S)-1-acryloyl-4-(2-(((2S,4R)-4-(2-(2-(2-(2-((2-(2,6-dioxopiperidin-3-yl)-1,3-dioxoisoindolin-4-yl)amino)ethoxy)ethoxy)ethoxy)ethoxy)-1-methylpyrrolidin-2-yl)methoxy)-7-(naphthalen-1-yl)-5,6,7,8-tetrahydropyrido[3,4-d]pyrimidin-4-yl)piperazin-2-yl)acetonitrile]
B (35 < B < 70) | A (A > 70) | C (Percent Degradation: C ≤ 35) | ≥ 70 |  |  | C=CC(=O)N1CCN(c2nc(OC[C@@H]3C[C@@H](OCCOCCOCCOCCOCCNc4cccc5c4C(=O)N(C4CCC(=O)NC4=O)C5=O)CN3C)nc3c2CCN(c2cccc4ccccc24)C3)C[C@@H]1CC#N (stereo partly drawn) [compound 519, 2-((2S)-1-acryloyl-4-(2-(((2S,4R)-4-((14-((2-(2,6-dioxopiperidin-3-yl)-1,3-dioxoisoindolin-4-yl)amino)-3,6,9,12-tetraoxatetradecyl)oxy)-1-methylpyrrolidin-2-yl)methoxy)-7-(naphthalen-1-yl)-5,6,7,8-tetrahydropyrido[3,4-d]pyrimidin-4-yl)piperazin-2-yl)acetonitrile]
